In US20120202814A1, “COMPOUNDS WITH DDX3 INHIBITORY ACTIVITY AND USES THEREOF” (UNIVERSITÀ DEGLI STUDI DI SIENA, priority 2009, published 2012):
Where two headings read alike, the source gives them in different places.

Key:
[1] = tested on: cervical cancer HeLa cell line; test: Antiproliferative activity against HeLa cells (CellTiter viability assay); assay type: cell-based; conditions: Homo sapiens
Description: Selected compounds from Table 1 were tested against the cervical cancer HeLa cell line for antiproliferative activity. Cell viability was measured with the CellTiter viability assay (Table 2). Table 3 lists the calculated antiproliferative potencies (EC50, dose required to suppress 50% of cell viability) for a series of representative compounds of the invention.

[2] = biological target: T1, human DDX3 (ATPase activity) (Homo sapiens, UniProt O00571); test: Human DDX3 ATPase activity assay (luciferase-based luminescence); assay type: biochemical; conditions: DDX3 ATPase activity; read-out: Ki (μM), apparent equilibrium dissociation constant for the inhibitor to the target enzyme DDX3
T1 construct: made in house; host or cells: E. coli
T1 sequence (O00571 whole entry): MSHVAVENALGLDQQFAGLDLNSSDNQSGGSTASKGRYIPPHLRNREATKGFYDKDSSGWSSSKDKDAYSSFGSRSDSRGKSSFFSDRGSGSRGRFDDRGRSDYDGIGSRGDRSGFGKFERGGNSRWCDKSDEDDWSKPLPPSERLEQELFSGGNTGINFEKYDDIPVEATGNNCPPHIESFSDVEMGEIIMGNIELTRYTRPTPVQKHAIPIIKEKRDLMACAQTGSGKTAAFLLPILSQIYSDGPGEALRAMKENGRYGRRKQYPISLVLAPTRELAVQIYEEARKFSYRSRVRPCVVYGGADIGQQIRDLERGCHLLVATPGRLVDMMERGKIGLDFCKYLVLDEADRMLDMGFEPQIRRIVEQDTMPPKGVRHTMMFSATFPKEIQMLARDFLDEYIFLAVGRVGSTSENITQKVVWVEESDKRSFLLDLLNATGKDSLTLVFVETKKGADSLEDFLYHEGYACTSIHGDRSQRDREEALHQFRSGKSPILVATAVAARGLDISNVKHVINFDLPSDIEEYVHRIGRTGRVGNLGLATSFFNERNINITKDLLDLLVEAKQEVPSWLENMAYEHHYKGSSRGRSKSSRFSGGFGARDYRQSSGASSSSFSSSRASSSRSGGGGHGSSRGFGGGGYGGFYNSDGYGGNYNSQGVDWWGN
Description: ATPase activity was tested with a luciferase-based luminescence assay (Easylite-Kinase, Perkin Elmer) on 96 wells microtiter plates. Briefly, recombinant purified human DDX3 (50-100 ng) was incubated in a 15 μL total reaction volume with reaction buffer (25 mM TrisHCl pH 7.5, 5 mM MgCl2), in the presence of increasing amounts of ATP and/or different combinations of ATP and the inhibitor to be tested. Reference curves in the absence of inhibitor (giving the 100% of enzymatic activity) and in the absence of enzyme (giving the baseline), were also included in each experiment. Reading was performed with a Microbeta Trilux (Perkin Elmer) luminometer, according to the manufacturer's protocol.
ATPase reactions were performed as described, in the presence of increasing amounts of inhibitor and variable ATP concentrations. Variations of the initial velocities of the reaction as a function of ATP concentrations in the absence or presence of 4 were analyzed with the equation: […]
Variation of the % inhibition as a function of compound FE15 at different ATP concentrations were fitted to the equation for cooperative binding: […]
where Vmax is the apparent maximal rate of the reaction in the absence of the inhibitor, [I] is the variable inhibitor concentration, n is the cooperativity index and Ki(app) is the apparent inhibition constant. Comparatively, fitting was done with the same Eq. (2) where n was kept fixed at the value of 1 (non-cooperativity hypothesis). F test was used to compare the two fittings and p value was calculated.
Human recombinant DDX3 was cloned, expressed and purified as described (Franca et al. Proteins 2007, 67, 1128-37).
The anti-DDX3 activity of the compounds of the invention was evaluated by in vitro ATPase activity assay using the recombinant human DDX3 protein produced in E. coli. The potency of inhibition (Ki) for each molecule was calculated, representing the concentration of the inhibitor able to reduce the DDX3 ATPase activity by 50%

HIV-1 = test: Antiviral assay, HIV-1 replication in infected PBMCs (viral RNA in supernatant); assay type: cell-based; conditions: Human immunodeficiency virus 1, PBMC, 72 h, read-out: EC50, anti-HIV activity
Description: FIG. 1. A) Antiviral activity (expressed as % of viral load with respect to the control) of compounds FE56 and FE66 at 0.3 μM and 3 μM doses against single round HIV-1 replication in HeLaCD4+ cells infected with a wild type HIV-1 strain. Measurements were performed at 72 h post infection. B) Antiviral activity of compounds FE15 and FE66 on HIV-1 replication in phytohemagglutinin-stimulated peripheral blood mononuclear cells (PBMCs) […] with HeLa CD4^+-cell culture supernatants containing wild type HIV. Compounds were tested at 50 μM (FE15) and 5 μM (FE66). The HIV-1 RNA was quantified in the cell culture supernatant after 3, and 5 days of incubation. Results are expressed as HIV RNA copies/ml. Control (white bars).
FIG. 2. Antiviral activity of DDX3 inhibitors. A) Comparison of the antiviral activity (expressed as % of viral RNA with respect to the control) on infected PBMCs of a fixed dose of selected inhibitors. Measurements were performed at 72 h post infection. Values are the means of three independent replicates. Error bars are ±SD. White bars: control without drugs; dark grey bar: positive control with AZT (0.01 μM); black bar: first generation inhibitor FE15 (50 μM); light grey bars: second generation DDX3 inhibitors FE66, 11d and 38 (3 μM). B) Dose-response curves for the inhibiton of HIV-1 replication (expressed as % of viral RNA with respect to the control) in infected PBMCs by FE15 (circles) and 38 (triangles). Measurements were performed at 72 h post infection. Values are the means of three independent replicates. Error bars are ±SD.
In detail, 0.5 μg of each HIV-1 plasmid construct was transfected into CD4 HeLa cells by using the lipofectin reagent, according to the recommendations of the manufacturer (Invitrogen, Groningen, The Netherlands). After 3 days of incubation at 37° C., the cell supernatants, which contained reconstituted viable recombinant viruses, were collected. Quantification of the newly produced recombinant strains was obtained by determination of the HIV RNA copy number in the cell culture supernatants. Successively, 10 ml of transfected HeLa CD4^+-cell culture supernatants containing wild-type, and mutated recombinant HIV strain […], was used to infect aliquots of 10×10^6 phytohemagglutinin-stimulated peripheral blood mononuclear cells (PBMCs) from HIV-seronegative blood donors. After 4 h of incubation, supernatants were removed and infected PBMCs were incubated at 37° C. in 10 ml of RPMI 1640 medium (Eurobio, Les Ulis Cedex B, France) supplemented with 20% fetal calf serum (Life Technologies, Ltd., Paisley, Scotland), 2 mM l-glutamine, 100 U of penicillin per ml, 100 μg of streptomycin per ml, 10% interleukin-2 (ZeptoMetrix Co., Buffalo, N.Y.), 5 μg of hydrocortisone (Sigma Chemical Co.) per ml and with fourfold dilutions of antiretroviral drugs. No-drug controls for each drug dilution were included in each assay. After 3, 5 and 7 days of incubation the HIV-1 RNA in the cell culture supernatant was quantified. Recombinant HIV-1 strains from treatment-naive patients and multidrug resistance-associated changes were assayed in parallel. The degree of inhibition of viral replication was measured by determining the HIV-1 RNA level in the supernatants of cell cultures and was expressed as the fold increase in the 50% inhibitory concentrations (IC50s) for resistant recombinant HIV-1 variants compared with the IC50s for the wild-type recombinant variant. Each test was performed in triplicate.

[3] = 48 hours, read-out: EC50 (μM) 48 hours, dose required to suppress 50% of cell viability
[4] = 72 hours, read-out: EC50 (μM) 72 hours, dose required to suppress 50% of cell viability

SMILES | EC50 [1, 3] [µM] | EC50 [1, 4] [µM] | Ki [2] [µM] | melting point [°C] | EC50 (HIV-1) [µM]
Cc1[nH]c2ccccc2c1/C=N/Nc1nc(Nc2ccc(F)cc2)nc(N2CCOCC2)n1 [FE-56M] | 10 | 5 | 0.2 | – | –
Fc1ccc(Nc2nc(N/N=C/c3cccc4ccccc34)nc(N3CCOCC3)n2)cc1 [Compound 11a, (E)-N-(4-fluorophenyl)-4-morpholino-6-(2-(naphthalen-1-ylmethylene)hydrazinyl)-1,3,5-triazin-2-amine] | – | – | 86 | 220 to 220.4 | –
Fc1ccc(Nc2nc(N/N=C/c3ccc4ccccc4c3)nc(N3CCOCC3)n2)cc1 [Compound 11b, (E)-N-(4-fluorophenyl)-4-morpholino-6-(2-(naphthalen-2-ylmethylene)hydrazinyl)-1,3,5-triazin-2-amine] | – | – | 8.5 | 225 to 226 | –
CC(=O)Nc1ccc(/C(C)=N/Nc2nc(Nc3ccccc3)nc(Nc3ccccc3)n2)cc1 [FE-56F] | 10 | 5 | 0.3 | – | –
COc1ccc(Nc2nc(NCc3ccco3)nc(N/N=C/c3cc([N+](=O)[O-])ccc3O)n2)cc1 [FE-56A] | 8 | 4 | 31.7 | – | –
O=C1Nc2ccccc2/C1=N/Nc1nc(NCc2cccc(Cl)c2)nc(N2CCOCC2)n1 [Compound 14f, (Z)-3-(2-(4-(3-Chlorobenzylamino)-6-morpholino-1,3,5-triazin-2-yl)hydrazono)indolin-2-one] | – | – | 2.9 | 144 to 144.5 | –
Oc1ccccc1/C=N/Nc1nc(Nc2ccc(F)cc2)nc(N2CCOCC2)n1 [Compound 11d, (E)-2-((2-(4-(4-Fluorophenylamino)-6-morpholino-1,3,5-triazin-2-yl)hydrazono)methyl)phenol] | – | – | 0.4 | 234 | 2.5
COc1cccc(/C=C2\SC(=S)N(CCC(=O)Nc3ccccc3O)C2=O)c1 [Compound 35e, 3-((Z)-5-(3-Methoxybenzylidene)-4-oxo-2-thioxothiazolidin-3-yl)-N-(2-hydroxyphenyl) propanamide] | – | – | 10 | 200 to 202 | –
O=C(CCN1C(=O)/C(=C/c2cc(F)cc(F)c2)SC1=S)Nc1ccccc1O [Compound 35c, 3-((Z)-5-(3,5-Difluorobenzylidene)-4-oxo-2-thioxothiazolidin-3-yl)-N-(2-hydroxyphenyl) propanamide] | – | – | 0.5 | 235 to 237 | –
Fc1ccc(Nc2nc(N/N=C/c3c(F)cccc3F)nc(N3CCOCC3)n2)cc1 [Compound 11c, (E)-4-(2-(2,6-difluorobenzylidene)hydrazinyl)-N-(4-fluorophenyl)-6-morpholino-1,3,5-triazin-2-amine] | – | – | 2.6 | 155.5 to 156 | –
COc1cccc(/C=C2\SC(=S)N(CCc3ccccc3)C2=O)c1 [Compound 3f, (Z)-5-(3-methoxybenzylidene)-3-phenethyl-2-thioxothiazolidin-4-one] | – | – | – | 122 to 125 | –
C#CN1C(=O)/C(=C/c2cccc(Br)c2)SC1=S [Compound 3c, (Z)-5-(3-bromobenzylidene)-3-ethynyl-2-thioxothiazolidin-4-one] | – | – | – | 159 to 161 | –
O=C(CCN1C(=O)/C(=C/c2cccc(F)c2)SC1=S)Nc1ccccc1[N+](=O)[O-] [Compound 35h, 3-((Z)-5-(3-Fluorobenzylidene)-4-oxo-2-thioxothiazolidin-3-yl)-N-(2-nitrophenyl)propanamide] | – | – | 7.6 | 207 to 208 | –
Oc1ccccc1/C=N/Nc1nc(NCc2cccc(Cl)c2)nc(N2CCOCC2)n1 [Compound 15j, (E)-2-((2-(4-(3-chlorobenzylamino)-6-morpholino-1,3,5-triazin-2-yl)hydrazono)methyl)phenol] | – | – | 62 | 163.5 to 164 | –
O=C(CCN1C(=O)/C(=C/c2cccc(Br)c2)SC1=S)Nc1ccccc1[N+](=O)[O-] [Compound 35g, 3-((Z)-5-(3-Bromobenzylidene)-4-oxo-2-thioxothiazolidin-3-yl)-N-(2-nitrophenyl)propanamide] | – | – | 8.7 | 204 to 206 | –
CCN(CC)c1nc(NCc2ccccc2)nc(N/N=C/c2ccccc2O)n1 [Compound 15k, (E)-2-((2-(4-(benzylamino)-6-(diethylamino)-1,3,5-triazin-2-yl)hydrazono)methyl)phenol] | 3 | 1 | 0.5 | – | –
CCN(CC)c1nc(NCc2ccccc2)nc(N/N=C2/C(=O)Nc3ccccc32)n1 [Compound 14g, (E)-3-(2-(4-(benzylamino)-6-(diethylamino)-1,3,5-triazin-2-yl)hydrazono)indolin-2-one] | 10 | 10 | 0.1 | – | –
O=C1/C(=C/c2cccnc2)SC(=S)N1CCc1ccccc1 [Compound 3h, (Z)-3-phenethyl-5-((pyridin-3-yl)methylene)-2-thioxothiazolidin-4-one] | – | – | – | 138 to 140 | –
O=C(CCN1C(=O)/C(=C/c2ccc3c(c2)OCO3)SC1=S)Nc1ccccc1O [Compound 35f, 3-((Z)-5-((Benzo[d][1,3]dioxol-5-yl)methylene)-4-oxo-2-thioxothiazolidin-3-yl)-N-(2-hydroxyphenyl)propanamide] | – | – | 1 | 240 to 241 | –
Clc1ccc(-c2ccc(/C=N/Nc3nc(Nc4ccccc4)nc(N4CCCCC4)n3)o2)cc1 [FE-56N] | 25 | 4 | 0.4 | – | –
Cc1cccc(/C=C2\SC(=S)N(CCC(=O)Nc3ccccc3O)C2=O)c1 [Compound 35d, 3-((Z)-5-(3-Methylbenzylidene)-4-oxo-2-thioxothiazolidin-3-yl)-N-(2-hydroxyphenyl) propanamide] | – | – | 97 | 208 to 209 | –
O=C1/C(=C/c2cccc(Br)c2)SC(=S)N1CCc1ccccc1 [Compound 3a, (Z)-5-(3-bromobenzylidene)-3-phenethyl-2-thioxothiazolidin-4-one] | – | – | – | 102 to 104 | –
